Where only a bound is given, the exact number is not on record here.

This test addresses T1, Tubulin--tyrosine ligase (Homo sapiens, UniProt Q8NG68).
T1 sequence (Q8NG68 whole entry): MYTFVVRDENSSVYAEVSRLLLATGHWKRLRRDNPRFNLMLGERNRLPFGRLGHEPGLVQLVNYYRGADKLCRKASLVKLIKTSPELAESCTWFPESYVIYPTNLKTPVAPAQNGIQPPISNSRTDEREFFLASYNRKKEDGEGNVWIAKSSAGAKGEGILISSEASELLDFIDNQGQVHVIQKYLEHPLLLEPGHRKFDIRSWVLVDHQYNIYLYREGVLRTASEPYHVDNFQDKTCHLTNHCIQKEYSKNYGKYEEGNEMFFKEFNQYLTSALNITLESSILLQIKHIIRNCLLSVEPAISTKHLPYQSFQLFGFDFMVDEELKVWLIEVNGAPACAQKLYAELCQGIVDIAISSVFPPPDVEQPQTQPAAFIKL
Put plainly: [3H]-Tyr Incorporation Assay. The settings on record: pH 6.8; 37 °C. An excerpt: Inhibition of [3H]-L-tyrosine incorporation into tubulin by enzyme tubulin tyrosine ligase (TTL).
A word on the Ki: it is a measure of affinity in units of concentration, obtained from inhibition or displacement. High values mean lower affinity, low ones higher affinity. Consider `[N-]=[N+]=Nc1cc(CC(N)C(=O)O)ccc1O` (stereo not drawn) [3-Azidotyrosine], for which the Ki came to 200 µM.
With `NC(Cc1ccc(O)c(C=O)c1)C(=O)O` (stereo not drawn) [3-Formyltyrosine], the Ki came to 300 µM.
In the case of `Nc1ccc(CC(N)C(=O)O)cc1` (stereo not drawn) [4-Aminophenylalanine] it was more than 4000 µM.
